These are literature values, as cited in US20230404937A1, “NOVEL DISINTEGRATION ORAL FILM FORMULATION WITH A CONTROLLED OR SUSTAINED ACTIVE RELEASE” (INTELGENX CORP., priority 2022, published 2023).

For the series the following is noted: when orally ingested; first metabolized in the liver.

With `CCCCCc1cc(O)c2c(c1)OC(C)(C)[C@@H]1CCC(C)=C[C@@H]21` [THC, tetrahydrocannabinol], the oral bioavailability is reported as 5%.
